{"source": "patent US8334403B1", "about": "“C-lysine conjugates as pH-controlled, light-activated reagents for double stranded DNA cleavage and associated methods” (Florida State University Research Foundation, Inc., priority 2005, dated 2012)", "key": {"[1]": {"tested_on": "pBR322 plasmid DNA", "test": "Plasmid relaxation assay: DNA photocleavage of supercoiled plasmid under UV irradiation", "type": "biochemical", "procedure": "General information. ^1H, ^13C and ^19F NMR were collected on a Varian Gemini 300 MHz NMR spectrometer and a Bruker 300 MHz NMR spectrometer. Mass spectrometry data was collected on a Jeol JMS-600H. UV spectra were recorded on a Shimadzu UV-2100. Fluorescence spectra were obtained with SPEX FluoMax spectrofluorimeter using right-angle geometry. pH was adjusted with AB 15 plus pH meter (Accument) after standardization at 25° C. All buffers were prepared and pH-adjusted at room temperature (25° C.). Plasmid DNA Photocleavage. pBR322 plasmid DNA (4,361 b/p; from BioLabs Inc., 1 μg/μL solution in 10 mM Tris-HCl (pH 8.0), and 1 mM EDTA buffer) was diluted to a concentration of 0.01 μg/μL. The solution containing cleavage agent, DNA (30 μM/bp) in 20 mM sodium phosphate buffer was incubated for 1 hour at 30° C. Samples were placed on ice at a distance of 20 cm from 200 W Hg—Xe lamp (Spectra-Physics, Laser & Photonics Oriel Instruments with long pass filter with 324 nm cut-off wavelength). Electrophoretic Analysis. The gel electrophoresis was carried out in 1×TBE buffer at 80 V using Miligel FisherBiotech Horizontal Electrophoresis System. All gels were run on 1% agarose slab gels. Before loading, the DNA samples were mixed with 0.33 volume of tracking dye containing bromophenol blue (0.25%) and glycerol (30%) in water. After staining in ethidium bromide solution (2 μg/ml) for 1 hour, the gel was washed with water and pictures were taken with Polaroid 3000ISO type 667 film. The relative quantities of the supercoiled, nicked, and linear DNA were calculated by integrating the “area” of each spot by the image analyzer software Total/Lab (Nonlinear Dynamics Ltd., UK). The amount of supercoiled DNA was multiplied by factor of 1.4 to account for reduced ethidium bromide intercalation into supercoiled DNA. pH titration by ^1H-NMR. pH* of compound 8 (3 mM) solution in D2O containing 0.05 wt % 3-(trimethylsilyl)propionic-2,2,3,3-d4 acid, sodium salt (TSP-d4) was adjusted with 10 wt % DCI and NaOD in D2O at 25° C. under argon purged condition. Spectrometric determinations of pKa. pH of 10 μM of compound solution in H2O was adjusted with 10, 100 mM HCl (aq) and NaOH (aq) solution under argon purged condition. Excitation wavelength was 330 nm and polymethacrylate fluorimeter cuvettes were used. Absorbance and fluorescence titration with DNA. The concentrations of calf thymus DNA stock solution was determined spectophotometrically using the following molar absorptovity values: 1.32×10^4 M^−1 cm^−1 (per base pair) at 260 nm. All experiments were done in 20 mM sodium phosphate buffer at 25° C. and polymethacrylate fluorimeter cuvettes were used. The same amount of DNA was added to both sample and reference cuvettes during UV/Vis titration. Determination of excited state lifetimes. The concentration of compound solution was 10 μM in 20 mM sodium phosphate buffer. The photoluminescence lifetime measurements were conducted by exciting the samples with the output of a Nd:VO—4 (Spectra-Physics Vanguard, 2 W, 532 nm, 76 MHz, 10 ps) pumped R6G dye laser (Coherent 702-1). The output of the dye laser (600 nm, Rhodamine 6G) was cavity dumped at 1.9 MHz and frequency doubled using a BBO crystal to excite the fluorophore (the excitation wavelength used was 290 nm). Samples were excited with <1 mW power and the emission was collected at right angles onto a Chromex S3 500 is 0.5 m imaging monochromator with a 50 g/mm grating and 0.5 nm resolution. Output of the monochromator is focused into a Hamamatsu C5680 streak camera operating at a 20 ns window for the fluorophore. Intensity analysis was carried out by integrating the spectral profile in time on the streak camera. Lifetime analysis over 6-7 lifetimes of the fluorophore was conducted by binning the photoluminescence intensity collected on the streak camera over a 20 nm spectral window at the centroid value of the emission of the fluorophore. Ethidium bromide displacement. […]"}, "[2]": {"tested_on": "calf thymus (CT) DNA", "test": "Fluorescence (emission) titration with DNA", "type": "binding", "conditions": "10 μM, 20 mM phosphate buffer", "procedure": "General information. ^1H, ^13C and ^19F NMR were collected on a Varian Gemini 300 MHz NMR spectrometer and a Bruker 300 MHz NMR spectrometer. Mass spectrometry data was collected on a Jeol JMS-600H. UV spectra were recorded on a Shimadzu UV-2100. Fluorescence spectra were obtained with SPEX FluoMax spectrofluorimeter using right-angle geometry. pH was adjusted with AB 15 plus pH meter (Accument) after standardization at 25° C. All buffers were prepared and pH-adjusted at room temperature (25° C.). Plasmid DNA Photocleavage. pBR322 plasmid DNA (4,361 b/p; from BioLabs Inc., 1 μg/μL solution in 10 mM Tris-HCl (pH 8.0), and 1 mM EDTA buffer) was diluted to a concentration of 0.01 μg/μL. The solution containing cleavage agent, DNA (30 μM/bp) in 20 mM sodium phosphate buffer was incubated for 1 hour at 30° C. […] The relative quantities of the supercoiled, nicked, and linear DNA were calculated by integrating the “area” of each spot by the image analyzer software Total/Lab (Nonlinear Dynamics Ltd., UK). […] Absorbance and fluorescence titration with DNA. The concentrations of calf thymus DNA stock solution was determined spectophotometrically using the following molar absorptovity values: 1.32×10^4 M^−1 cm^−1 (per base pair) at 260 nm. […]"}, "[3]": {"tested_on": "UMRC3 cells", "test": "RCC cell proliferation assay, UMRC3", "type": "cell-based", "conditions": "Homo sapiens, UMRC3, UV 350 nm 10 minutes, 72 hours", "procedure": "(§1) FIG. 23 provides the results of cell proliferation assays using three different RCC cell lines: (a) UMRC3, (b) UMRC6 and (c) 786-O, and compounds I-5; RCC cells were resuspended in media and treated with UV radiation (350 nm) for 10 minutes with and without indicated compounds; control cells were exposed to the indicated compound 1-5 at final concentration of 10 μM; cell numbers determined after 72 hours as described in the SI Section;\n(§2) The ability of compounds 1-5 to inhibit cell proliferation in three human clear cell renal cell carcinoma (RCC) cell lines was tested in the dark and under photoactivation (FIG. 23). No difference was detected in the control experiments between cells not exposed to UV versus those that were exposed to UV at 350 nm for 10 minutes in any of the three RCC cell lines tested (FIG. 23 A, B & C; first two columns)."}, "[4]": {"tested_on": "UMRC6 cells", "test": "RCC cell proliferation assay, UMRC6", "type": "cell-based", "conditions": "Homo sapiens, UMRC6, UV 350 nm 10 minutes, 72 hours", "procedure": "as §1, §2"}, "[5]": {"tested_on": "calf thymus (CT) DNA", "test": "UV-Vis absorbance titration with DNA", "type": "binding", "conditions": "20 mM phosphate buffer", "procedure": "General information. ^1H, ^13C and ^19F NMR were collected on a Varian Gemini 300 MHz NMR spectrometer and a Bruker 300 MHz NMR spectrometer. Mass spectrometry data was collected on a Jeol JMS-600H. UV spectra were recorded on a Shimadzu UV-2100. Fluorescence spectra were obtained with SPEX FluoMax spectrofluorimeter using right-angle geometry. pH was adjusted with AB 15 plus pH meter (Accument) after standardization at 25° C. All buffers were prepared and pH-adjusted at room temperature (25° C.). Plasmid DNA Photocleavage. pBR322 plasmid DNA (4,361 b/p; from BioLabs Inc., 1 μg/μL solution in 10 mM Tris-HCl (pH 8.0), and 1 mM EDTA buffer) was diluted to a concentration of 0.01 μg/μL. The solution containing cleavage agent, DNA (30 μM/bp) in 20 mM sodium phosphate buffer was incubated for 1 hour at 30° C. Samples were placed on ice at a distance of 20 cm from 200 W Hg—Xe lamp (Spectra-Physics, Laser & Photonics Oriel Instruments with long pass filter with 324 nm cut-off wavelength). Electrophoretic Analysis. The gel electrophoresis was carried out in 1×TBE buffer at 80 V using Miligel FisherBiotech Horizontal Electrophoresis System. All gels were run on 1% agarose slab gels. Before loading, the DNA samples were mixed with 0.33 volume of tracking dye containing bromophenol blue (0.25%) and glycerol (30%) in water. After staining in ethidium bromide solution (2 μg/ml) for 1 hour, the gel was washed with water and pictures were taken with Polaroid 3000ISO type 667 film. The relative quantities of the supercoiled, nicked, and linear DNA were calculated by integrating the “area” of each spot by the image analyzer software Total/Lab (Nonlinear Dynamics Ltd., UK). […] Absorbance and fluorescence titration with DNA. The concentrations of calf thymus DNA stock solution was determined spectophotometrically using the following molar absorptovity values: 1.32×10^4 M^−1 cm^−1 (per base pair) at 260 nm. […]"}}}
{"smiles": "Cl.Cl.NCCCC[C@H](N)C(=O)Nc1ccc(C#Cc2c(F)c(F)nc(F)c2F)cc1", "note": "[Compound 4, (S)-2,6-Diamino-hexanoic acid [4-(2,3,5,6-tetrafluoro-pyridin-4-ylethynyl)-phenyl]-amide dihydrochloride]", "values": [{"measurement": "protection of DNA from damage by hydroxyl radical/singlet oxygen scavengers", "setting": "[1]; pH 6, 10 mM scavenger, 5 min irradiation", "result": "neither of the additives is able to protect DNA"}, {"measurement": "intact DNA (Form I) remained", "setting": "[1]; pH 6, 3 minutes of irradiation, 15 μM, 30 μM/bp DNA", "result": 16, "unit": "%"}, {"measurement": "decrease of total DNA cleavage activity on increasing phosphate buffer from 10 mM to 50 mM", "setting": "[1]; pH 7, 10 μM", "result": 40, "unit": "%"}, {"measurement": "unreacted DNA (Form I)", "setting": "[1]; pH 7, 3 minutes of irradiation, 15 μM, 30 μM/bp DNA", "result": 60, "unit": "%"}, {"measurement": "decrease of total DNA cleavage activity on increasing phosphate buffer from 10 mM to 50 mM", "setting": "[1]; pH 8, 10 μM", "result": 34, "unit": "%"}, {"measurement": "unreacted DNA (Form I)", "setting": "[1]; pH 8, 3 minutes of irradiation, 15 μM, 30 μM/bp DNA", "result": 86, "unit": "%"}, {"measurement": "DNA remains unreacted", "setting": "[1]; pH 8, after an hour of irradiation, 10 μM", "result": "~60", "unit": "%"}, {"measurement": "change in fluorescence upon DNA titration", "setting": "[2]", "result": "increase in fluorescence"}, {"measurement": "mortality at 10 µM", "setting": "[3]", "result": 94, "unit": "%"}, {"measurement": "mortality at 10 µM", "setting": "[4]", "result": 90, "unit": "%"}, {"measurement": "hypochromicity on titration with DNA", "setting": "[5]; pH 5.5, 10 μM", "result": 20, "unit": "%"}, {"measurement": "hypochromicity on titration with DNA", "setting": "[5]; pH 7, 10 μM", "result": 14, "unit": "%"}, {"measurement": "hypochromicity on titration with DNA", "setting": "[5]; pH 8, 10 μM", "result": 12, "unit": "%"}]}
